Experimental data as given in article PMC11653428, “5‐methyl‐2‐carboxamidepyrrole‐based novel dual mPGES‐1/sEH inhibitors as promising anticancer candidates” (Archiv Der Pharmazie, 2024).
Where two headings read alike, the source gives them in different places.

Legend:
human recombinant sEH = biological target: T1, human recombinant sEH (Homo sapiens, UniProt P34913); assay: Cell-free sEH activity assay (PHOME fluorescence, inhibitor screening kit); type: biochemical; conditions: for remaining activity at 10 µM: compound at 10 μM, percentage of vehicle control (DMSO) = 100%, n = 3, read-out: Residual activity of sEH, mean ± SD (%); for IC50: threefold dilutions from 30,000 to 1.52 nM, read-out: IC50 (µM), mean ± SD for sEH
T1 construct: purchased 10011671
T1 sequence (P34913 1-555): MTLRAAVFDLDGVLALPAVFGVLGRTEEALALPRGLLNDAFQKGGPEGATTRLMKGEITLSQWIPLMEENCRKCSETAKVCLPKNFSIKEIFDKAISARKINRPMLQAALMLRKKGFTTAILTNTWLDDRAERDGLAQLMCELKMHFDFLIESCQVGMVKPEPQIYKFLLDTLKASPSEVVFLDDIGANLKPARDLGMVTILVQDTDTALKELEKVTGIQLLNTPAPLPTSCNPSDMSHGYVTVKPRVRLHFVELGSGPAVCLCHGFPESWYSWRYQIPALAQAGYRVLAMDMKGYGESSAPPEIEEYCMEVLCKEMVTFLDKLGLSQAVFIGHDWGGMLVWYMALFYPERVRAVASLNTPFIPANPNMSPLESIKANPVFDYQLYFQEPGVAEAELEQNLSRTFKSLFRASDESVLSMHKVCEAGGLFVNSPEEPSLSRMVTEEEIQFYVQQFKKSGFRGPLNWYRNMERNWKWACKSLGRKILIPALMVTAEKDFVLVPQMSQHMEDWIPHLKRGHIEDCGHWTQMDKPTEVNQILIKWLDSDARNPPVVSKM
Text: When the epoxide moiety of PHOME is hydrolyzed by the epoxide hydrolase, an intramolecular cyclization occurs, which results in the release of a cyanohydrin under basic conditions. The cyanohydrin quickly decomposes into cyanide ion and the highly fluorescent 6‐Methoxy‐2‐naphthaldehyde, which can be analyzed. The signal was detected (λex 330 nm, λem 465 nm) on an EnSpire™ Multimode Plate Reader (PerkinElmer).
The reaction was initiated by adding a small amount of a no-fluorescent substrate called PHOME. When sEH hydrolyzes PHOME, it triggers a chemical reaction that ultimately produces a fluorescent compound. The fluorescence emitted by this compound was measured using a plate reader, which allowed the researchers to analyze the enzyme activity and determine the effectiveness of the test compounds in inhibiting sEH.

HaCaT cells = assay: Cell survival index (MTT assay and cell count) in HaCaT keratinocytes; type: cell-based, human; conditions: 48 h of incubation, cell survival index, n = 24, healthy control cells, read-out: IC50 ± SD (µM) HaCat
Description: HaCaT cells, human immortalized keratinocytes (kindly provided by Dr. Valeria Cicatiello at Italian National Research Council (CNR), Institute of Genetics and Biophysics), were maintained in a humidified 5% CO2 atmosphere at 37°C and grown in DMEM (Invitrogen) supplemented with 10% fetal bovine serum (FBS, Cambrex), L‐glutamine (2 mM), penicillin (100 units/mL, Sigma‐Aldrich), and streptomycin (100 μg/mL). Cells were seeded at a density between 2 and 4 × 10^4 cells/cm^2 and cultured to about 80%–90% confluence.^[ [66] ^] HaCaT cells provide ideal in vitro cell systems to study biocompatibility and toxicological cellular responses.
(§1) Bioactivity and cell responses to in vitro treatment with 1f, 2b, 2c, and 2d compounds were investigated through the estimation of a “cell survival index,” arising from the combination of cell viability evaluation with cell counting. The cell survival index is calculated as the arithmetic mean between the percentage values derived from the 3‐(4,5‐dimethyl‐2‐thiazolyl) 2,5‐diphenyl‐2‐H‐tetrazolium bromide (MTT) assay and the automated cell count.^[ [67] ^] HCT‐116 and HaCaT were inoculated in 96‐microwell culture plates at a density of 10^4 cells/well and allowed to grow for 24 h. Subsequently, the culture medium was exchanged with fresh medium, and cells were exposed to different concentrations (0→50 µM) of compounds 1f, 2b−2d under investigation for an additional 48 h. After the treatments, the medium was removed, and the cells were incubated with 20 μL/well of an MTT solution (5 mg/mL MTT, Sigma) for 1 h in a humidified 5% CO2 incubator at 37°C. The incubation was stopped by removing the MTT solution and by adding 100 μL/well of DMSO to solubilize the obtained formazan. Finally, the absorbance was monitored at 550 nm using a microplate reader (iMark microplate reader, Bio‐Rad). Cell number was determined by TC20 automated cell counter (Bio‐Rad), which uses disposable slides, TC20 trypan blue dye (0.4% trypan blue dye w/v in 0.81% sodium chloride and 0.06% potassium phosphate dibasic solution), and a CCD camera to count cells based on the analyses of captured images. The medium was removed, and the cells were collected. Ten microliters of cell suspension, mixed with 0.4% trypan blue solution at a 1:1 ratio, were loaded into the chambers of disposable slides. The results are expressed in terms of total cell count (cell number/mL). […] Total counts and live/dead ratio from random samples for each cell line were subjected to comparisons with manual hemocytometers in control experiments. […] Concentration‐effect curves were obtained with nonlinear regression using GraphPad Prism 8.0 curve‐fitting software.^[ [67] ^]
(§2) Experiments on HTC-116 and HaCat cell lines: The bioactivity and cellular responses to treatment 2d were evaluated by calculating a "cell survival index." This index combines results from cell viability tests (using the MTT assay) and cell counting. HCT-116 and HaCaT cells were grown in 96-well plates for 24 hours, after which they were treated with various concentrations of the compounds for an additional 48 hours. After treatment, cell viability was assessed by incubating the cells with MTT solution, which results in the formation of formazan crystals. These crystals were dissolved in DMSO, and the absorbance was measured to determine cell viability.

HCT-116 cells = assay: Cell survival index (MTT assay and cell count) in HCT-116 CRC cells; type: cell-based, human; conditions: 48 h of incubation, cell survival index, n = 24, read-out: IC50 ± SD (µM) HCT-116
Description: HCT‐116 cells (CCL‐247 ™), an epithelial‐like carcinoma cell line isolated from the colon of an adult with colon cancer, were purchased from ATCC and cultured in Roswell Park Memorial Institute (Invitrogen) supplemented with 10% fetal bovine serum (FBS, Cambrex), L‐glutamine (2 mM, Sigma), penicillin (100 units/mL, Sigma), and streptomycin (100 μg/mL, Sigma), and cultured in a humidified 5% carbon dioxide atmosphere at 37°C, according to ATCC recommendations.^[ [58] ^]
as §1, §2

mPGES-1 = biological target: T2, mPGES-1 (Homo sapiens, UniProt O14684); assay: Cell-free mPGES-1 activity assay (microsomes of IL-1β-stimulated A549 cells, PGE2 formation by RP-HPLC); type: biochemical; conditions: for Residual activity of mPGES-1, mean ± SD (%) / remaining activity at 10 µM: compound at 10 μM, percentage of vehicle control (DMSO) = 100%, n = 3; for Residual activity of mPGES-1, mean ± SD (%): 10 µM; for remaining activity at 10 µM: read-out: Residual activity of mPGES-1, mean ± SD (%); for IC50: cell-free, A549 microsomes, read-out: IC50 (µM), mean ± SD for mPGES-1
T2 construct: endogenous in cells; host or cells: A549 cells stimulated with IL-1β; microsomal fraction
T2 sequence (O14684 1-152): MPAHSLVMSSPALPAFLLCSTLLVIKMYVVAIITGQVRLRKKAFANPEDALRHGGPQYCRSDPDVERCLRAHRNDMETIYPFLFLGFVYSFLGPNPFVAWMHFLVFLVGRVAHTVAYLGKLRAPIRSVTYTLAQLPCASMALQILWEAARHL
Description: Compounds 1a–f and 2a–d were submitted to a cell‐free assay mPGES‐1^[ [52] ^] to validate the inhibitory activity predicted in silico.
Microsomes of A549 cells containing mPGES‐1 were used as enzyme sources. In brief, A549 cells were stimulated with interleukin‐1β (IL‐1β) (2 ng/mL) for 48 h, harvested, and sonicated. The lysate was first centrifugated at 10,000g (10 min), and then at 174,000g for (1 h) at 4°C. The pellet (microsomal fraction) was resuspended in 1 ml homogenization buffer (0.1 M potassium phosphate buffer, pH = 7.4, 1 mM phenylmethanesulfonyl fluoride, 60 µg/mL soybean trypsin inhibitor, 1 µg/mL leupeptin, 2.5 mM GSH, and 250 mM sucrose), the total protein concentration was determined, and microsomes were diluted in potassium phosphate buffer (0.1 M, pH 7.4) containing GSH (2.5 mM) and seeded in a 96‐well plate. […] After 1 min, the addition of 100 µL of a stop solution (40 mM FeCl3, 80 mM citric acid, and 10 µM 11β‐PGE2) blocked the reaction. PGE2 and 11β‐PGE2 were extracted by solid‐phase extraction, and PGE2 formation was quantified by RP‐HPLC.^[ [52] ^]
mPGES-1 activity assay: Microsomes from A549 cells, which contain the enzyme mPGES-1, were used in an experiment to study the production of PGE2. The A549 cells were first stimulated with IL-1β for 48 hours, then harvested and broken down by sonication. The resulting cell lysate was subjected to two rounds of centrifugation to isolate the microsomal fraction. The microsomes were diluted and placed in a 96-well plate, where they were preincubated with various compounds or a control solution. The production of PGE2 was triggered by adding a substrate, and the reaction was stopped after one minute. PGE2 was then extracted and quantified using HPLC.

[1] = test system: human recombinant mPGES-1; set-up: method as in earlier work; conditions: cited from earlier work
mPGES-1 from A549 cells = test system: mPGES-1 from A549 cells; set-up: method as in earlier work; conditions: cited from earlier work

Structure (SMILES) | remaining activity at 10 µM (human recombinant sEH) [%] | remaining activity at 10 µM (mPGES-1) [%] | IC50 (HaCaT cells; Homo sapiens, HaCaT) [µM] | IC50 (HCT-116 cells; Homo sapiens, HCT-116) [µM] | IC50 (human recombinant sEH) [µM] | other results
Cc1[nH]c(C(=O)Nc2ccc(C(C)O)cc2)cc1C(=O)c1ccccc1 (racemic) [Compound 1d, (±) 4‐Benzoyl‐N‐[4‐(1‐hydroxyethyl)phenyl]‐5‐methyl‐1H‐pyrrole‐2‐carboxamide] | 93.4 ± 0.6 | – | – | – | – | –
N.N.[Cl][Pt][Cl] [Cisplatin, reference compound] | – | – | – | – | – | IC50 (HaCaT cells): 20 ± 3 µM; IC50 (HCT-116 cells): 9 ± 3 µM
Cc1[nH]c(C(=O)Nc2ccc3ccccc3n2)cc1C(=O)c1ccccc1 [Compound 1b, 4‐benzoyl‐5‐methyl‐N‐(quinolin‐2‐yl)‐1H‐pyrrole‐2‐carboxamide] | 71.8 ± 4.7 | ~55 | – | – | – | Residual activity of mPGES-1, mean ± SD (%) (mPGES-1): 55.6 ± 2.9%
Cc1ccc(NC(=O)c2cc(C(=O)c3ccccc3)c(C)[nH]2)cc1C [Compound 1c, 4‐Benzoyl‐N‐(3,4‐dimethylphenyl)‐5‐methyl‐1H‐pyrrole‐2‐carboxamide] | 47.7 ± 2.9 | 65.5 ± 3.7 | – | – | – | –
Cc1[nH]c(C(=O)Nc2cc(Cl)cc(Cl)c2)cc1C(=O)c1ccccc1 [Compound 1e, 4‐benzoyl‐N‐(3,5‐dichlorophenyl)‐5‐methyl‐1H‐pyrrole‐2‐carboxamide] | 86.9 ± 4.8 | 73.4 ± 5.2 | – | – | – | –
Cc1[nH]c(C(=O)Nc2cc(N)cc(C(F)(F)F)c2)cc1C(=O)c1ccccc1 [Compound 1f, N‐[3‐Amino‐5‐(trifluoromethyl)phenyl]‐4‐benzoyl‐5‐methyl‐1H‐pyrrole‐2‐carboxamide] | 36.1 ± 5.1 | ~50 | 37 ± 3 | 25 ± 2 | 5 ± 0.9 | Residual activity of mPGES-1, mean ± SD (%) (mPGES-1): 47.6 ±4.4%
CCc1ccccc1NC(=O)c1cc(C(=O)c2ccc3ccccc3c2)c(C)[nH]1 [Compound 2a, 4‐(2‐Naphthoyl)‐N‐(2‐ethylphenyl)‐5‐methyl‐1H‐pyrrole‐2‐carboxamide] | 74.3 ± 3.6 | 83.4 ± 4 | – | – | – | –
Cc1ccc(NC(=O)c2cc(C(=O)c3ccc4ccccc4c3)c(C)[nH]2)cc1O [Compound 2b, 4‐(2‐Naphthoyl)‐N‐(3‐hydroxy‐4‐methylphenyl)‐5‐methyl‐1H‐pyrrole‐2‐carboxamide] | 21.7 ± 4.2 | 17.6 ± 0.3 | 31 ± 4 | 42 ± 1 | 1.5 ± 0.2 | IC50 (mPGES-1): 3.3 ± 0.5 µM
COc1ccc(NC(=O)c2cc(C(=O)c3ccc4ccccc4c3)c(C)[nH]2)cc1O [Compound 2c, 4‐(2‐Naphthoyl)‐N‐(3‐hydroxy‐4‐methoxyphenyl)‐5‐methyl‐1H‐pyrrole‐2‐carboxamide] | 47.2 ± 2.5 | 30.4 ± 1.9 | 43 ± 2 | 44 ± 3 | 6.3 ± 1.1 | IC50 (mPGES-1): 4 ± 1.1 µM
Cc1[nH]c(C(=O)Nc2ccc(Cl)c(CO)c2)cc1C(=O)c1ccc2ccccc2c1 [Compound 2d, 4‐(2‐Naphthoyl)‐N‐[4‐chloro‐3‐(hydroxymethyl)phenyl]‐5‐methyl‐1H‐pyrrole‐2‐carboxamide] | 41.6 ± 3.1 | 21.5 ± 2.9 | 22 ± 2 | 39 ± 2 | 7.6 ± 1 | IC50 (mPGES-1): 4.5 ± 1.3 µM
CCCCCCCCCCCC(=O)c1c(C)c(CCC(=O)O)n(C)c1C [I, 3-(4-dodecanoyl-1,3,5-trimethyl-1H-pyrrol-2-yl)propanoic acid] | – | – | – | – | – | Inhibition of human recombinant mPGES-1 at 1μM [%] [1]: 54±8 (n=7) %; Inhibition of mPGES-1 from A549 cells at 3.3 μM [%] (mPGES-1 from A549 cells): 74±8 (n=5) %
